{
  "source": "patent EP0240391A1",
  "about": "“Silver salt derived from naphthyridine, useful as a bactericide, process for its preparation and compositions containing it” (EDMOND PHARMA S.R.L., priority 1986, dated 1987)",
  "key": {"[1]": {"conditions": "compared with the corresponding free acid; from European patent 49593; cited from earlier work"}, "Escherichia coli": {"test_system": "Escherichia coli", "assay": "In vitro antibacterial activity, MIC (CMI) by agar dilution method", "type": "cell-based", "conditions": "5 strains", "source_text": "(§1) Pour l'évaluation des activités antibactérienne et antifongique ont été testées 24 souches de bactéries et 11 de champignons isolées de matériel pathologique humain récent ou provenant de collections internationales, ainsi subdivisées :\n(§2) Pour l'activité in vitro on a déterminé la CMI par la méthode des dilutions (milieu agar) selon la technique classique.\n(§3) La solution mère des produits à tester (composé de formule I et acide libre de départ) a été préparée par dissolution dans le diméthylsulfoxyde et addition d'eau distillée dans le rapport 1 : 1O. Les solutions ultérieures ont été préparées par dilution avec de l'eau distillée ou avec le terrain minimum essential d'Eagle contenant 3 % de serum de veau.\n(§4) Les concentrations ont été exprimées en µg de substance active, calculée comme acide libre, par ml de milieu.\n(§5) Le tableau I montre l'activité antibactérienne in vitro du sel d'argent de formule I ci-dessus (Composé I) et de l'acide libre correspondant (Acide libre), exprimée par le nombre de souches sensibles aux produits testés à des concentrations de 3O à O,O1 µg/ml."}, "Pseudomonas aeruginosa": {"test_system": "Pseudomonas aeruginosa", "assay": "In vitro antibacterial activity, MIC (CMI) by agar dilution method", "type": "cell-based", "conditions": "4 strains", "source_text": "as §1, §2, §3, §4, §5"}, "[2]": {"test_system": "Staphylococcus aureus (pen. rés.)", "assay": "In vitro antibacterial activity, MIC (CMI) by agar dilution method", "type": "cell-based", "conditions": "2 penicillin-resistant strains", "source_text": "as §1, §2, §3, §4, §5"}, "Staphylococcus aureus": {"test_system": "Staphylococcus aureus", "assay": "In vitro antibacterial activity, MIC (CMI) by agar dilution method", "type": "cell-based", "conditions": "4 strains", "source_text": "as §1, §2, §3, §4, §5"}, "[3]": {"test_system": "Streptococcus epidermidis", "assay": "In vitro antibacterial activity, MIC (CMI) by agar dilution method", "type": "cell-based", "conditions": "3 strains", "source_text": "as §1, §2, §3, §4, §5"}, "Streptococcus faecalis": {"test_system": "Streptococcus faecalis", "assay": "In vitro antibacterial activity, MIC (CMI) by agar dilution method", "type": "cell-based", "conditions": "2 strains", "source_text": "as §1, §2, §3, §4, §5"}, "Streptococcus pyogenes": {"test_system": "Streptococcus pyogenes", "assay": "In vitro antibacterial activity, MIC (CMI) by agar dilution method", "type": "cell-based", "conditions": "4 strains", "source_text": "as §1, §2, §3, §4, §5"}, "Candida albicans": {"test_system": "Candida albicans", "assay": "In vitro antifungal activity, MIC (CMI) by agar dilution method", "type": "cell-based", "conditions": "for nombre de souches sensibles aux concentrations suivantes (en µg/ml): 5 strains", "source_text": "as §1, §2, §3, §4"}, "[4]": {"test_system": "Trichophyton mentagrophytes", "assay": "In vitro antifungal activity, MIC (CMI) by agar dilution method", "type": "cell-based", "conditions": "for nombre de souches sensibles aux concentrations suivantes (en µg/ml): 4 strains", "source_text": "as §1, §2, §3, §4"}, "Trichophyton rubrum": {"test_system": "Trichophyton rubrum", "assay": "In vitro antifungal activity, MIC (CMI) by agar dilution method", "type": "cell-based", "conditions": "for nombre de souches sensibles aux concentrations suivantes (en µg/ml): 2 strains", "source_text": "as §1, §2, §3, §4"}, "[5]": {"assay": "Photosensitivity compared with other antibacterial silver salts", "type": "physicochemical", "conditions": "e.g. sel d'argent de la sulfadiazine, solid state and in solution"}},
  "data": [
    {"compound": "sel d'argent de l'acide 1-éthyl-6-fluoro-1,4-dihydro-4-oxo-7-(1-pipérazinyl)-quinolinyl-3-carboxilique", "values": [
      {"measurement": "activité antibactérienne", "setting": "[1]", "result": "du même ordre que celle de l'acide libre correspondant"}
    ]},
    {"compound": "sel d'argent de l'acide 1-éthyl-6-fluoro-1,4-dihydro-4-oxo-7-(1-pipérazinyl)-1,8-naphtyridine-3-carboxylique [Composé I]", "values": [
      {"measurement": "Nombre de souches sensibles aux concentrations suivantes (µg/ml)", "setting": "Escherichia coli; 0,1 µg/ml (as free acid)", "result": 2},
      {"measurement": "Nombre de souches sensibles aux concentrations suivantes (µg/ml)", "setting": "Escherichia coli; 0,03 µg/ml (as free acid)", "result": 1},
      {"measurement": "Nombre de souches sensibles aux concentrations suivantes (µg/ml)", "setting": "Escherichia coli; 0,3 µg/ml (as free acid)", "result": 2},
      {"measurement": "Nombre de souches sensibles aux concentrations suivantes (µg/ml)", "setting": "Pseudomonas aeruginosa; 0,1 µg/ml (as free acid)", "result": 3},
      {"measurement": "Nombre de souches sensibles aux concentrations suivantes (µg/ml)", "setting": "Pseudomonas aeruginosa; 0,03 µg/ml (as free acid)", "result": 1},
      {"measurement": "Nombre de souches sensibles aux concentrations suivantes (µg/ml)", "setting": "[2]; 0,1 µg/ml (as free acid)", "result": 1},
      {"measurement": "Nombre de souches sensibles aux concentrations suivantes (µg/ml)", "setting": "[2]; 0,3 µg/ml (as free acid)", "result": 1},
      {"measurement": "Nombre de souches sensibles aux concentrations suivantes (µg/ml)", "setting": "Staphylococcus aureus; 0,1 µg/ml (as free acid)", "result": 3},
      {"measurement": "Nombre de souches sensibles aux concentrations suivantes (µg/ml)", "setting": "Staphylococcus aureus; 0,3 µg/ml (as free acid)", "result": 1},
      {"measurement": "Nombre de souches sensibles aux concentrations suivantes (µg/ml)", "setting": "[3]; 0,3 µg/ml (as free acid)", "result": 1},
      {"measurement": "Nombre de souches sensibles aux concentrations suivantes (µg/ml)", "setting": "[3]; 1 µg/ml (as free acid)", "result": 1},
      {"measurement": "Nombre de souches sensibles aux concentrations suivantes (µg/ml)", "setting": "[3]; 3 µg/ml (as free acid)", "result": 1},
      {"measurement": "Nombre de souches sensibles aux concentrations suivantes (µg/ml)", "setting": "Streptococcus faecalis; 1 µg/ml (as free acid)", "result": 1},
      {"measurement": "Nombre de souches sensibles aux concentrations suivantes (µg/ml)", "setting": "Streptococcus faecalis; 3 µg/ml (as free acid)", "result": 1},
      {"measurement": "Nombre de souches sensibles aux concentrations suivantes (µg/ml)", "setting": "Streptococcus pyogenes; 1 µg/ml (as free acid)", "result": 1},
      {"measurement": "Nombre de souches sensibles aux concentrations suivantes (µg/ml)", "setting": "Streptococcus pyogenes; 3 µg/ml (as free acid)", "result": 2},
      {"measurement": "Nombre de souches sensibles aux concentrations suivantes (µg/ml)", "setting": "Streptococcus pyogenes; 10 µg/ml (as free acid)", "result": 1},
      {"measurement": "nombre de souches sensibles aux concentrations suivantes (en µg/ml)", "setting": "Candida albicans; 3 µg/ml (as free acid)", "result": 1},
      {"measurement": "nombre de souches sensibles aux concentrations suivantes (en µg/ml)", "setting": "Candida albicans; 10 µg/ml (as free acid)", "result": 3},
      {"measurement": "nombre de souches sensibles aux concentrations suivantes (en µg/ml)", "setting": "Candida albicans; 30 µg/ml (as free acid)", "result": 1},
      {"measurement": "nombre de souches sensibles aux concentrations suivantes (en µg/ml)", "setting": "[4]; 3 µg/ml (as free acid)", "result": 1},
      {"measurement": "nombre de souches sensibles aux concentrations suivantes (en µg/ml)", "setting": "[4]; 10 µg/ml (as free acid)", "result": 2},
      {"measurement": "nombre de souches sensibles aux concentrations suivantes (en µg/ml)", "setting": "[4]; 30 µg/ml (as free acid)", "result": 1},
      {"measurement": "nombre de souches sensibles aux concentrations suivantes (en µg/ml)", "setting": "Trichophyton rubrum; 10 µg/ml (as free acid)", "result": 1},
      {"measurement": "nombre de souches sensibles aux concentrations suivantes (en µg/ml)", "setting": "Trichophyton rubrum; 30 µg/ml (as free acid)", "result": 1},
      {"measurement": "photosensibilité", "setting": "[5]", "result": "moins photosensible"}
    ]},
    {"compound": "CCn1cc(C(=O)O)c(=O)c2cc(F)c(N3CCNCC3)nc21", "note": "[Acide libre, acide 1-éthyl-6-fluoro-1,4-dihydro-4-oxo-7-(1-pipérazinyl)-1,8-naphtyridine-3-carboxylique, reference compound]", "values": [
      {"measurement": "Nombre de souches sensibles aux concentrations suivantes (µg/ml)", "setting": "Escherichia coli; 0,1 µg/ml (as free acid)", "result": 2},
      {"measurement": "Nombre de souches sensibles aux concentrations suivantes (µg/ml)", "setting": "Escherichia coli; 0,03 µg/ml (as free acid)", "result": 1},
      {"measurement": "Nombre de souches sensibles aux concentrations suivantes (µg/ml)", "setting": "Escherichia coli; 0,3 µg/ml (as free acid)", "result": 2},
      {"measurement": "Nombre de souches sensibles aux concentrations suivantes (µg/ml)", "setting": "Pseudomonas aeruginosa; 0,3 µg/ml (as free acid)", "result": 3},
      {"measurement": "Nombre de souches sensibles aux concentrations suivantes (µg/ml)", "setting": "Pseudomonas aeruginosa; 1 µg/ml (as free acid)", "result": 1},
      {"measurement": "Nombre de souches sensibles aux concentrations suivantes (µg/ml)", "setting": "[2]; 0,3 µg/ml (as free acid)", "result": 1},
      {"measurement": "Nombre de souches sensibles aux concentrations suivantes (µg/ml)", "setting": "[2]; 1 µg/ml (as free acid)", "result": 1},
      {"measurement": "Nombre de souches sensibles aux concentrations suivantes (µg/ml)", "setting": "Staphylococcus aureus; 0,1 µg/ml (as free acid)", "result": 1},
      {"measurement": "Nombre de souches sensibles aux concentrations suivantes (µg/ml)", "setting": "Staphylococcus aureus; 1 µg/ml (as free acid)", "result": 2},
      {"measurement": "Nombre de souches sensibles aux concentrations suivantes (µg/ml)", "setting": "[3]; 3 µg/ml (as free acid)", "result": 2},
      {"measurement": "Nombre de souches sensibles aux concentrations suivantes (µg/ml)", "setting": "[3]; 10 µg/ml (as free acid)", "result": 1},
      {"measurement": "Nombre de souches sensibles aux concentrations suivantes (µg/ml)", "setting": "Streptococcus faecalis; 10 µg/ml (as free acid)", "result": 1},
      {"measurement": "Nombre de souches sensibles aux concentrations suivantes (µg/ml)", "setting": "Streptococcus faecalis; 30 µg/ml (as free acid)", "result": 1},
      {"measurement": "Nombre de souches sensibles aux concentrations suivantes (µg/ml)", "setting": "Streptococcus pyogenes; 1 µg/ml (as free acid)", "result": 1},
      {"measurement": "Nombre de souches sensibles aux concentrations suivantes (µg/ml)", "setting": "Streptococcus pyogenes; 3 µg/ml (as free acid)", "result": 1},
      {"measurement": "Nombre de souches sensibles aux concentrations suivantes (µg/ml)", "setting": "Streptococcus pyogenes; 10 µg/ml (as free acid)", "result": 2},
      {"measurement": "MIC", "setting": "Candida albicans; Candida albicans, same 5 strains as Table II, read-out: activité antifongique: inactif jusqu'à des concentrations de", "result": "> 1", "unit": "µg/mL"},
      {"measurement": "MIC", "setting": "[4]; Trichophyton mentagrophytes, same 4 strains as Table II, read-out: activité antifongique: inactif jusqu'à des concentrations de", "result": "> 1", "unit": "µg/mL"},
      {"measurement": "MIC", "setting": "Trichophyton rubrum; Trichophyton rubrum, same 2 strains as Table II, read-out: activité antifongique: inactif jusqu'à des concentrations de", "result": "> 1", "unit": "µg/mL"}
    ]}
  ]
}
